The RepoRT retention time repository

Experiment: HILIC, Waters ACQUITY UPLC BEH Amide, 100 × 2.1 mm, 1.7 µm; A: water + 0.125% formic acid + 10 mM ammonium formate; B: 5% water + 95% acetonitrile + 0.125% formic acid + 10 mM ammonium formate; gradient (min/%B) 0/100 2/100 7.7/70 9.5/40 10.25/30 12.75/100 17/100
Conditions: stereoisomer not certain

Row | LC retention time [min] | Structure (SMILES)
1 | 8.16 | CC(=O)NC(CCCN=C(N)N)C(=O)O [N-.alpha.-Acetyl-L-arginine]
2 | 5.87 | Nc1ccn(C2CC(O)C(CO)O2)c(=O)n1 (centres undefined) [2'-Deoxycytidine]
3 | 1.25 | CCCc1nc2c(C)cc(-c3nc4ccccc4n3C)cc2n1Cc1ccc(-c2ccccc2C(=O)O)cc1 [Telmisartan]
4 | 4.61 | CC(=O)OCC1OC(Oc2c(-c3ccc(O)c(O)c3)oc3cc(O)cc(O)c3c2=O)C(O)C(O)C1O (stereo not drawn) [Quercetin-3-O-beta-glucopyranosyl-6'-acetate]
5 | 2.05 | NCCS [2-Aminoethanethiol]
6 | 7.67 | O=C(O)CNC(=O)OCc1ccccc1 [N-Benzyloxycarbonylglycine]
7 | 5.72 | COC1C(O)C(CO)OC1n1cnc2c(=O)[nH]c(N)nc21 (centres undefined) [2'-O-Methylguanosine]
8 | 2.87 | CC1CN(CCCn2c3ccccc3c3ccccc32)CC(C)N1 (centres undefined) [Rimcazole]
9 | 9.25 | Nc1nc2c(ncn2C2CC(O)C(COP(=O)(O)O)O2)c(=O)[nH]1 (centres undefined) [2'-Deoxyguanosine 5'-monophosphate]
10 | 6.02 | COc1cc(-c2oc3cc(O)cc(O)c3c(=O)c2OC2OC(COC3OC(C)C(O)C(O)C3O)C(O)C(O)C2O)ccc1O (centres undefined) [Isorhamnetin-3-O-rutinoside]
11 | 7.66 | C[N+](C)(C)CCCC(=O)O [4-Trimethylammoniobutanoic acid]
12 | 9.61 | O=P(O)(O)OC1OC(CO)C(O)C(O)C1O (centres undefined) [Glucose-1-phosphate]
13 | 4.99 | Cn1cc(C2OC(CO)C(O)C2O)c(=O)[nH]c1=O (centres undefined) [1-Methylpseudouridine]
14 | 1.49 | CC(N=C(NC#N)Nc1ccncc1)C(C)(C)C (centres undefined) [Pinacidil]
15 | 0.98 | COc1cc(C=Cc2ccc(O)cc2)cc(OC)c1 [Pterostilbene]
16 | 9.17 | OCC1OC(OCC2OC(OC3(CO)OC(CO)C(O)C3O)C(O)C(O)C2O)C(O)C(O)C1O (centres undefined) [Raffinose]
17 | 9.9 | NC(N)=NCCCC(NC(=O)C(N)CCC(=O)O)C(=O)O (centres undefined) [Glu-Arg]
18 | 8.14 | O=C(O)C1CC(O)CN1 (centres undefined) [Hydroxyproline]
19 | 2.03 | O=C(NCCN1CCOCC1)c1ccc(Cl)cc1 [Moclobemide]
20 | 1.29 | O=C(c1ccccc1)c1ccc2n1CCC2C(=O)O (centres undefined) [Toradol]
21 | 1.01 | Cc1onc(-c2ccccc2)c1-c1ccc(S(N)(=O)=O)cc1 [Valdecoxib]
22 | 7.15 | NCCO [Ethanolamine]
23 | 6.62 | Cc1cnc(=O)[nH]c1N [5-Methylcytosine]
24 | 1.98 | Nc1nnc(-c2cccc(Cl)c2Cl)c(N)n1 [Lamotrigine]
25 | 1.24 | O=C(O)CCCCCCCCCCCCCCCCC(=O)O [Octadecanedioic acid]
26 | 9.85 | NC(COP(=O)(O)O)C(=O)O (centres undefined) [O-Phosphoserine]

Row | LC retention time [min] | Structure (SMILES)
27 | 9.3 | NCCCCN [Putrescine]
28 | 8.71 | CC(=O)OCc1ccccc1 [Benzylacetate]
29 | 5.6 | NC(=O)NCCC(=O)O [3-Ureidopropionic acid]
30 | 4.76 | CCCc1nc(C(C)(C)O)c(C(=O)O)n1Cc1ccc(-c2ccccc2-c2nn[nH]n2)cc1 [Olmesartan]
31 | 6.9 | Nc1[nH]c(=O)ncc1CO [5-Hydroxymethylcytosine]
32 | 2.96 | Cc1cccc(C)c1NC(=O)C1CCCCN1C (centres undefined) [Mepivacaine]
33 | 5.3 | CC(CCCCC(=O)Nc1ccc(C(F)(F)F)cc1)NCCc1cnc[nH]1 (centres undefined) [Histamine-trifluoromethyltoluide]
34 | 3 | CCC1OC(=O)C(C)C(OC2CC(C)(OC)C(O)C(C)O2)C(C)C(OC2OC(C)CC(N(C)C)C2O)C(C)(OC)CC(C)C(=O)C(C)C(O)C1(C)O (centres undefined) [Clarithromycin]
35 | 2.6 | COC1C(O)C(CO)OC1n1cnc2c(N)ncnc21 (centres undefined) [2'-O-Methyladenosine]
36 | 1.08 | Clc1ccc(CON=C(Cn2ccnc2)c2ccc(Cl)cc2Cl)c(Cl)c1 [Oxiconazole]
37 | 3.6 | CC(C)C(=O)NCC(=O)O [N-Isobutyrylglycine]
38 | 5.37 | CCC(=O)NCC(=O)O [2-Propanamidoacetic acid]
39 | 1.01 | CC(=O)C1(O)CCC2C3CC(C)C4=CC(=O)CCC4(C)C3CCC21C (centres undefined) [Medroxyprogesterone]
40 | 1.26 | CC1CC2C3CCC4=CC(=O)C=CC4(C)C3(Cl)C(O)CC2(C)C1(O)C(=O)CO (centres undefined) [Beclomethasone]
41 | 8.55 | CSCCC(NC(=O)CCC(N)C(=O)O)C(=O)O (centres undefined) [gamma-Glutamylmethionine]
42 | 3.47 | CC(C)NCC(O)COc1ccc(COCCOC(C)C)cc1 (centres undefined) [Bisoprolol]
43 | 6.88 | NC(Cc1ccc(O)c([N+](=O)[O-])c1)C(=O)O (centres undefined) [3-Nitrotyrosine]
44 | 2.4 | O=c1cc[nH]c(=O)[nH]1 [Uracil]
45 | 4.87 | NC1CCN(c2nc3c(cc2F)c(=O)c(C(=O)O)cn3-c2ccc(F)cc2F)C1 (centres undefined) [Tosufloxacin]
46 | 4.29 | COc1cc2nc(N(C)CCCNC(=O)C3CCCO3)nc(N)c2cc1OC (centres undefined) [Alfuzosin]
47 | 4.19 | Cc1cn(C2OC(CO)C(O)C2O)c(=O)[nH]c1=O (centres undefined) [5-Methyluridine]
48 | 5.08 | CC(=O)Nc1ccn(C2OC(CO)C(O)C2O)c(=O)n1 (centres undefined) [N-Acetylcytidine]
49 | 4.58 | O=C(O)c1ccnc2ccccc12 [4-Quinolinecarboxylic acid]
50 | 7.48 | NC(Cc1c[nH]c2ccc(O)cc12)C(=O)O (centres undefined) [5-Hydroxytryptophan]
51 | 2.93 | COCCCCC(=NOCCN)c1ccc(C(F)(F)F)cc1 [Fluvoxamine]
52 | 1.1 | CC1(C)OC2COC3(COS(N)(=O)=O)OC(C)(C)OC3C2O1 (centres undefined) [Topiramate]

Row | LC retention time [min] | Structure (SMILES)
53 | 7.66 | CC(C)C(NC(=O)C(N)CCC(=O)O)C(=O)NC(Cc1ccccc1)C(=O)O (stereo not drawn) [Glu-Val-Phe]
54 | 5.76 | CCC1(O)CC2CN(CCc3c([nH]c4ccccc34)C(C(=O)OC)(c3cc4c(cc3OC)N(C)C3C(O)(C(N)=O)C(O)C5(CC)C=CCN6CCC43C65)C2)C1 (centres undefined) [Vindesine]
55 | 8.06 | Nc1cc(CC(N)C(=O)O)ccc1O (centres undefined) [3-Aminotyrosine]
56 | 5.09 | COC1C(CO)OC(n2ccc(N)nc2=O)C1O (centres undefined) [3'-O-Methylcytidine]
57 | 4.88 | NC12CC3CC(CC(C3)C1)C2 [Amantadine]
58 | 7.7 | O=S(=O)(O)CCNC(CO)(CO)CO [TES]
59 | 8.62 | CS(=O)CCC(N)C(=O)O (centres undefined) [Methioninesulfoxide]
60 | 6.98 | Nc1ccccc1C(=O)CC(N)C(=O)O (centres undefined) [Kynurenine]
61 | 2.95 | CC(C)=CC(=O)NCC(=O)O [3-Methylcrotonylglycine]
62 | 8.32 | CNC(CCC(=O)O)C(=O)O (centres undefined) [N-Methylglutamic acid]
63 | 4.09 | Cn1c(=O)[nH]c2[nH]c(=O)n(C)c2c1=O [1,7-Dimethyluric acid]
64 | 1.2 | O=CNC1CCCCC1 [N-Cyclohexylformamide]
65 | 1.04 | CCC=CCC1C(=O)CCC1CC(=O)OC (centres undefined) [Methyl jasmonate]
66 | 8.56 | NC(=O)NC(NC(N)=O)C(=O)O [Allantoic acid]
67 | 8.33 | NCC(=O)O [Glycine]
68 | 1.99 | COc1ccccc1N1CCN(CC(O)COc2cccc3ccccc23)CC1 (centres undefined) [Naftopidil]
69 | 4.58 | COc1ccccc1N1CCN(CCCNc2cc(=O)n(C)c(=O)n2C)CC1 [Urapidil]
70 | 4.9 | Clc1ccc2c(c1)CCc1cccnc1C2=C1CCNCC1 [Desloratadine]
71 | 3.65 | COc1ccc(C(=O)NCc2ccc(OCCN(C)C)cc2)cc1OC [Itopride]
72 | 2.04 | COC1C(O)CC(=O)OC(C)CC=CC=CC(O)C(C)CC(CC=O)C1OC1OC(C)C(OC2CC(C)(O)C(OC(=O)CC(C)C)C(C)O2)C(N(C)C)C1O (centres undefined) [Kitasamycin]
73 | 1.56 | O=C(O)C1CCC(C(=O)O)CC1 (centres undefined) [1,4-Cyclohexanedicarboxylic acid]
74 | 5.11 | Nc1ncnc2c1[nH]c(=O)n2C1CC(O)C(CO)O1 (centres undefined) [8-Oxo-2-deoxyadenosine]
75 | 1.47 | OCC1OC(n2cnc3c(NC4CCCC4)nc(Cl)nc32)C(O)C1O (centres undefined) [2-Chloro-N6-cyclopentyladenosine]
76 | 8.71 | O=C(O)CCc1ccccc1 [Hydrocinnamic acid]
77 | 8.92 | NCCCCN=C(N)N [Agmatine]
78 | 4.53 | c1c[nH]cn1 [Imidazole]

Row | Structure (SMILES) | LC retention time [min]
79 | O=C1Nc2ccc(Cl)cc2C(c2ccccc2)=NC1O (centres undefined) [Oxazepam] | 1.37
80 | C=CCC1(C(C)C#CCC)C(=O)NC(=O)N(C)C1=O (centres undefined) [Methohexital] | 6.9
81 | CCN(C(C)=O)c1cccc(-c2ccnc3c(C#N)cnn23)c1 [Zaleplon] | 1.02
82 | NCC(O)c1ccccc1 (centres undefined) [Phenylethanolamine] | 5.51
83 | N=C1NC(=O)C(c2ccccc2)O1 (centres undefined) [Pemoline] | 1.39
84 | CN1CCC23CCCCC2C1Cc1ccc(O)cc13 (centres undefined) [Dextrorphan] | 3.87
85 | C=C(C)CN1CCC23c4c5ccc(O)c4OC2c2[nH]c4ccccc4c2CC3(O)C1C5 (centres undefined) | 2.93
86 | CNCCc1cnc[nH]1 [N-alpha-methylhistamine] | 7.48
87 | COc1ccc2c(c1)C13CCCCC1C(C2)N(C)CC3 (centres undefined) [Dextromethorphan] | 2.64
88 | NCCc1ccccn1 [2-(2-Aminoethyl)pyridine] | 5.52
89 | COc1ccc(C=O)cc1OC [3,4-Dimethoxybenzaldehyde] | 1.08
